What was measured:
VEGF receptor KDR = target: T1, VEGF receptor KDR (Homo sapiens, UniProt P35968); assay: In vitro receptor tyrosine kinase assay (DELFIA), VEGF receptor KDR; type: biochemical; details: GST-VEGFR2 806-1356, 0.6 uM ATP; read-out: VEGFR IC50
T1 construct: made in house; host or cells: Sf9 cells (Spodoptera frugiperda), baculovirus
From the text: In the case of VEGF receptor KDR a 1.6-kb cDNA corresponding to the catalytic domain of VEGFR2 or KDR (Genbank accession number AF035121 amino acid 806 to 1356) is cloned into the Pst I site of the pDEST20 Gateway vector (Invitrogen) for the production of a GST-tagged version of that enzyme.
The GST-VEGFR2806-1356 protein is expressed in Sf9 cells (Spodoptera frugiperda) upon infection with recombinant baculovirus construct.
The supernatant is loaded onto a GST-agarose column (Sigma) equilibrated with PBS pH 7.3. Following a four column volume (CV) wash with PBS pH 7.3+1% Triton X-100 and 4 CV wash with buffer B (50 mM Tris pH 8.0, 20% glycerol and 100 mM NaCl), bound proteins are step eluted with 5 CV of buffer B supplemented with 5 mM DTT and 15 mM glutathion. […] Final GST-VEGFR2806-1356 protein preparations concentrations are about 0.7 mg/ml with purity approximating 70%.

c-Met = target: T2, c-Met (Homo sapiens, UniProt P08581); assay: Inhibition of c-Met phosphorylation in MKN45 cells (direct ELISA); type: cell-based; details: 3 h treatment, read-out: CMET ELISA IN MKN45 IC50
T2 construct: endogenous in cells; host or cells: MKN45 gastric carcinoma cells
From the text: The following assay is used to determine inhibition of c-Met phosphorylation.
The c-Met receptor is expressed in numerous cancer cell lines derived from tumors of epithelial origin. In MKN45 gastric carcinoma cells the c-Met gene is amplified, resulting in several-fold overexpression of the receptor and its constitutive activation. For this reason constitutively high levels of ERK1/2 are also detected in these cells, independently of HGF-added stimulation (Smolen G A, Sordella R, Muir B, Mohapatra G, Barmettler A, Archibald H, et al. Amplification of MET may identify a subset of cancers with extreme sensitivity to the selective tyrosine kinase inhibitor PHA-665752. Proc Natl Acad Sci USA 2006). We have developed a sensitive method to follow c-Met phosphorylation in these cells. In previous studies with earlier generation c-Met inhibitors, we established that the IC50s for the inhibition of c-Met phosphorylation were identical using this novel ELISA approach and standard western blot procedure, with antibodies directed against the activating autocatalysis tyrosine residues of c-MET (Tyr Y1230-34-35).
Cell treatments: MKN45 cells are seeded into wells of 96-well plates at a density of 3×10^4 cells/well in RPMI medium supplemented with 10% FBS. HA-TPR-RON expressing 293T (clone 18) cells are seeded into wells of 96-well plates at a density of 3×10^4 cells/well in DMEM medium supplemented with 10% FBS. Cells are grown for 48 h prior to treatments with compounds of interest. Inhibitors are added to the medium in triplicate wells at the indicated doses. After 3 h of treatment, media is aspirated and cells are lysed by one freeze-thaw cycle in 50 μL/well hypotonic lysis buffer (25 mM HEPES pH 7.5, 10 mM NaCl with 1 mM 4-(2-aminoethyl)benzenesulfonyl fluoride hydrochloride, 200 μM sodium orthovanadate, 1 mM sodium fluoride, 10 μg/mL of leupeptin, 10 μg/mL of aprotinin/mL, 1 μg/mL of pepstatin and 50 μg/mL Na-p-tosyl-L-lysine chloromethyl ketone hydrochloride.
Detection of phosphorylated c-Met by direct ELISA: Lysate samples (5 μL) from wells of treatment plates are transferred to 80 μL of binding buffer (25 mM HEPES pH 7.5, 200 mM NaCl) in wells of high binding white polysterene 96-well plates (Corning). After an overnight protein binding incubation at 4° C., lysates are aspirated and wells are blocked for 1 h at 37° C. in TBST supplemented with 5% BSA. Plates are incubated with the primary antibodies anti-phospho-Tyrosine (Millipore, 4G10) diluted 1/15000 in TBST supplemented with 5% BSA for 1 h at room temperature. Plates are washed 3 times on a plate washer (SkanWasher, Molecular Devises), and incubated with the reporter antibody […] (Sigma) diluted 1/15000 in TBST supplemented with 5% BSA, for 1 h at room temperature. Plates are washed 3 times with TBST using on a plate washer and subsequently incubated with chemiluminescent substrate solution (ECL, Roche). Luminescence signal is captured on a Polar Star Optima apparatus (BMG LabTech).
Average values of the triplicate samples are used to prepare IC50 curves using a 4-parameter fit model. These curves are calculated using, for example, GraFit 5.0 software. For assay standardization purpose, an internal control is included on each experimental test plate.

DU145 cells = assay: Scatter assay in DU145 cells (HGF-stimulated); type: cell-based; details: Homo sapiens, DU-145, last dose that created an inhibitory effect on scattering, 24 h, read-out: DU145 SCATT. INHIB IC50
Procedure: Scatter assays in DU145. The scatter assay is performed as described previously (Miura H, Nishimura K, Tsujimura A, Matsumiya K, Matsumoto K, Nakamura T, et al. Effects of hepatocyte growth factor on E-cadherin-mediated cell-cell adhesion in DU145 prostate cancer cells. Urology 2001; 58(6):1064-9) for DU145 prostate carcinoma cells with the indicated modifications. In brief, DU145 cells (ATCC) are seeded in 24-well plates at a density of 7×10^3 cells/well in MEM medium complemented with 10% FBS and cultured for 48 h, to allow the formation of small compact colonies of cells. Inhibitors are subsequently added at a range of doses (0.00032-10 uM) for 3 h. Cells are then stimulated to migrate by the addition of HGF (in the form of conditioned medium from 293T cells over-expressing the human HGF gene) and the culture is continued for another 24 h. The IC50 values is defined as the last dose that created an inhibitory effect on scattering. For the purpose of standardization a control is carried on every test plates for the DU145 scattering assays.

A549 cells = assay: Wound healing assay in A549 cells (HGF-stimulated); type: cell-based; details: Homo sapiens, last dose that inhibited gap closing by more than 25%, 24 h, read-out: A549 WOUND_HEALING IC50
Procedure: Wound healing assay in A549 cells. A549 cells (ATCC) are seeded in DMEM low glucose medium complemented with 10% FBS into 24-well plates at a density of 7.5×10^4 cells/well and grown to confluence (48 h). Inhibitors were added to the medium at a range of doses (0.00032-10 uM) for 3 h at which point a gap is introduced by scraping cells with a P1000 pipette tip. Cells are then stimulated to migrate by the addition of HGF (in the form of conditioned medium from 293T cells over-expressing the human HGF gene) and the culture is continued for 24 h. […] For the purpose of standardization, a control is carried on every assay plates.

[1] = target: recombinant human c-Met/HGF receptor (Homo sapiens, UniProt P08581); assay: In vitro receptor tyrosine kinase assay (DELFIA), c-Met/HGF receptor
Chain of recombinant human c-Met/HGF receptor (P08581 1078-1337): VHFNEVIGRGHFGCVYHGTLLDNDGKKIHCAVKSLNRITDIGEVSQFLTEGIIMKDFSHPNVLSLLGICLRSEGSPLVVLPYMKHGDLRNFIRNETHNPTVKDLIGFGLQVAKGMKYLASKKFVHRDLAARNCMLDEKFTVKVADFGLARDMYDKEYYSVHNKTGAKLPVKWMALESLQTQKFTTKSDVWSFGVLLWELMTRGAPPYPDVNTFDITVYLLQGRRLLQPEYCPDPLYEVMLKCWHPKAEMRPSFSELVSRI

T2 sequence (P08581 25-1390): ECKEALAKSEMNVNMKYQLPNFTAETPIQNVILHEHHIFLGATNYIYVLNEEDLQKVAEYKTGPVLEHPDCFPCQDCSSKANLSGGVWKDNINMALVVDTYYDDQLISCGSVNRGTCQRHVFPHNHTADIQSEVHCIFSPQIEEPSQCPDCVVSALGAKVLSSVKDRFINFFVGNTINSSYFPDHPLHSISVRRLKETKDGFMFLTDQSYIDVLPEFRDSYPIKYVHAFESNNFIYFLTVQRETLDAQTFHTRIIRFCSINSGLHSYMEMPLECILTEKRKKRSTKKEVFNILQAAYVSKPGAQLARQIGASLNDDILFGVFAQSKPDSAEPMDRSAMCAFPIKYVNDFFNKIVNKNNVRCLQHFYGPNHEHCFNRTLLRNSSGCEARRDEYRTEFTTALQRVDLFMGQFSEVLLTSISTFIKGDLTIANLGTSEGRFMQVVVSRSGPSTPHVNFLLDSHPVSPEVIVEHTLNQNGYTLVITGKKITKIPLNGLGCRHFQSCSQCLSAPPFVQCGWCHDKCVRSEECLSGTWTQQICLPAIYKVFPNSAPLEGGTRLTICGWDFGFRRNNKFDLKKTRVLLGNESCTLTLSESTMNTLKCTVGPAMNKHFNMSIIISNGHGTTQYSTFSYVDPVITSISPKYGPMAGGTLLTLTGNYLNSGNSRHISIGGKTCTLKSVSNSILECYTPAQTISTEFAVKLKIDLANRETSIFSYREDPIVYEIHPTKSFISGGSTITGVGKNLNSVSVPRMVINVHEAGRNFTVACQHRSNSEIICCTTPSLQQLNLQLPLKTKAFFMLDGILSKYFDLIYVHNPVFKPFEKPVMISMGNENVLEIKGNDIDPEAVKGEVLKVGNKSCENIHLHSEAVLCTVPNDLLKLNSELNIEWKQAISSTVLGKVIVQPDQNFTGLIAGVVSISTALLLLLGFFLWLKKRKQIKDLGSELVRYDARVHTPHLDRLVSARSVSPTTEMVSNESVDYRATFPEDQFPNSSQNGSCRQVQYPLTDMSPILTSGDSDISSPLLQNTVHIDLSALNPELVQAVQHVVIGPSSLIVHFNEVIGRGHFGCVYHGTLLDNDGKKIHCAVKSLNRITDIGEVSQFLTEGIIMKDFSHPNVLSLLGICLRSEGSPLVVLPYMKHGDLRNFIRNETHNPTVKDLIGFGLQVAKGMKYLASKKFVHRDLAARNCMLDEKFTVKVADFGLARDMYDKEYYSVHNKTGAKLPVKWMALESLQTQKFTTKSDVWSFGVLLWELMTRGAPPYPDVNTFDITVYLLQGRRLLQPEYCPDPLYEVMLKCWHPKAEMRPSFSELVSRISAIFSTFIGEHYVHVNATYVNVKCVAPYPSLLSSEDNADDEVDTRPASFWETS
T1 sequence (P35968 806-1356): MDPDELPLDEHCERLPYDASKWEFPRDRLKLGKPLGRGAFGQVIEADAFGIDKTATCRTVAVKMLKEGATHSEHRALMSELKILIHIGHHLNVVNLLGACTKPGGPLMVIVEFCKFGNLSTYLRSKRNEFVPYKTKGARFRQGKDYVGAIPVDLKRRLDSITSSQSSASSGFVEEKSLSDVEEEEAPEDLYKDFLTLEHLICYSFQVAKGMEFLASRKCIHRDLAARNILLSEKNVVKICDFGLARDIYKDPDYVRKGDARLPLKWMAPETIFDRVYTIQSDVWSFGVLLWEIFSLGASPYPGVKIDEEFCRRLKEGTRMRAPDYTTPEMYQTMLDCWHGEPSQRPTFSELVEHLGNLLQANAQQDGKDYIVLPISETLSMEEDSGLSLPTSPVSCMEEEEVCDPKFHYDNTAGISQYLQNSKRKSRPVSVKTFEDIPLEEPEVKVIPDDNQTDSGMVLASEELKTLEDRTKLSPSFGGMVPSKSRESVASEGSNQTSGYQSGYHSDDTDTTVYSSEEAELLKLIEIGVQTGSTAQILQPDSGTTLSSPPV

SMILES	IC50 (VEGF receptor KDR)	IC50 (c-Met)	IC50 (DU145 cells)	IC50 (A549 cells)	IC50 [1]
COCCNCc1cccc(-c2cc3nccc(Oc4ccc(NC(=S)NC(=O)Cc5ccccc5OC)cc4F)c3s2)c1	< 250 nM	< 250 nM	250 to 500 nM	250 to 500 nM	< 250 nM
CS(=O)(=O)CCNCc1cccc(-c2cc3nccc(Oc4ccc(NC(=S)NC(=O)Cc5ccccc5)cc4F)c3s2)c1	< 250 nM	< 250 nM	> 1000 nM	> 1000 nM	< 250 nM
COC[C@H](C)NCc1cccc(-c2cc3nccc(Oc4ccc(NC(=S)NC(=O)Cc5ccccc5)cc4F)c3s2)c1	< 250 nM	< 250 nM	250 to 500 nM	250 to 500 nM	< 250 nM
COC[C@H](C)NCc1ccc(-c2cc3nccc(Oc4ccc(NC(=S)NC(=O)Cc5ccccc5)cc4F)c3s2)cc1	< 250 nM	250 to 500 nM	250 to 500 nM	250 to 500 nM	< 250 nM
CS(=O)(=O)CCNCc1cccc(-c2cc3nccc(Oc4ccc(NC(=S)NC(=O)Cc5ccc(F)cc5)cc4F)c3s2)c1	< 250 nM	< 250 nM	> 1000 nM	> 1000 nM	< 250 nM
COC[C@H](C)NCc1ccc(-c2cc3nccc(Oc4ccc(NC(=S)NC(=O)Cc5ccc(F)cc5)cc4F)c3s2)cc1	< 250 nM	< 250 nM	250 to 500 nM	250 to 500 nM	< 250 nM
COCCNCc1ccc(-c2cc3nccc(Oc4ccc(NC(=S)NC(=O)Cc5ccccc5F)cc4F)c3s2)cc1	< 250 nM	< 250 nM	250 to 500 nM	250 to 500 nM	< 250 nM
CS(=O)(=O)CCNCc1ccc(-c2cc3nccc(Oc4ccc(NC(=S)NC(=O)Cc5ccc(F)cc5)cc4F)c3s2)cc1	< 250 nM	< 250 nM	250 to 500 nM	250 to 500 nM	< 250 nM
CS(=O)(=O)CCNCc1ccc(-c2cc3nccc(Oc4ccc(NC(=S)NC(=O)Cc5ccccc5)cc4F)c3s2)cc1	< 250 nM	< 250 nM	250 to 500 nM	250 to 500 nM	< 250 nM
COCCNCc1ccc(-c2cc3nccc(Oc4ccc(NC(=S)NC(=O)Cc5ccccc5OC)cc4F)c3s2)cc1	< 250 nM	< 250 nM	250 to 500 nM	> 1000 nM	< 250 nM
O=C(Nc1ccccc1)C1(C(=O)Nc2ccc(Oc3ccnc4cc(-c5ccc(CNCC(F)(F)F)cc5)sc34)c(F)c2)CC1	< 250 nM	< 250 nM	< 250 nM	< 250 nM	< 250 nM
COCCNCCc1ccc(-c2cc3nccc(Oc4ccc(NC(=O)CC(=O)Nc5ccccc5)cc4F)c3s2)cc1	< 250 nM	250 to 500 nM	250 to 500 nM	250 to 500 nM	< 250 nM
COCCNCc1ccc(-c2cc3nccc(Oc4ccc(NC(=O)C5(C(=O)Nc6ccc(F)cc6)CC5)cc4F)c3s2)nc1 [drawing 354]	< 250 nM		< 250 nM	< 250 nM	

Second part, the molecule after the results:

IC50 (VEGF receptor KDR)	IC50 (c-Met)	IC50 (DU145 cells)	IC50 (A549 cells)	IC50 [1]	SMILES
250 to 500 nM	250 to 500 nM	250 to 500 nM	> 1000 nM	< 250 nM	COCCNCc1cccc(-c2cc3nccc(Oc4ccc(NC(=O)NC(=O)Cc5ccc(F)cc5)cc4F)c3s2)c1
< 250 nM	500 to 1000 nM	250 to 500 nM	250 to 500 nM	< 250 nM	COCCNCc1ccc(-c2cc3nccc(Oc4ccc(NC(=O)C5(C(=O)Nc6ccccc6OC)CC5)cc4F)c3s2)cc1
< 250 nM	< 250 nM	> 1000 nM	250 to 500 nM	< 250 nM	COCCNCc1ccc(-c2cc3nccc(Oc4ccc(NC(=S)NC(=O)Cc5ccccc5)cc4F)c3s2)o1
< 250 nM	250 to 500 nM	250 to 500 nM	250 to 500 nM	< 250 nM	COCCNCc1ccc(-c2cc3nccc(Oc4ccc(NC(=O)CC(=O)Nc5ccccc5)cc4F)c3s2)cc1
< 250 nM	< 250 nM	< 250 nM	< 250 nM	< 250 nM	COCCNCc1ccc(-c2cc3nccc(Oc4ccc(NC(=S)NC(=O)Cc5ccccc5)cc4F)c3s2)nc1
< 250 nM	< 250 nM	< 250 nM	< 250 nM	< 250 nM	COCCNCc1cnc(-c2cc3nccc(Oc4ccc(NC(=O)C5(C(=O)Nc6ccccc6)CC5)cc4F)c3s2)n1C
< 250 nM	< 250 nM	< 250 nM	< 250 nM	< 250 nM	COCCNCc1ccc(-c2cc3nccc(Oc4ccc(NC(=O)CC(=O)Nc5ccccc5)cc4F)c3s2)nc1
< 250 nM	< 250 nM	250 to 500 nM	< 250 nM	< 250 nM	COCCNCc1ccc(-c2cc3nccc(Oc4ccc(NC(=O)CC(=O)Nc5ccc(F)cc5)cc4F)c3s2)nc1
< 250 nM					COCCNCc1cnc(-c2cc3nccc(Oc4ccc(NC(=O)Nc5cc(C)on5)cc4F)c3s2)n1C
< 250 nM				< 250 nM	COCCNCc1cccc(-c2cc3nccc(Oc4ccc(NC(=O)Nc5cc(C(F)(F)F)ccc5F)cc4F)c3s2)n1
				> 1000 nM	COCCN(Cc1cnc(-c2cc3nccc(Oc4ccc(NC(=O)NC5CC5)cc4F)c3s2)n1C)C(=O)OCc1ccccc1
250 to 500 nM				250 to 500 nM	COCCNCc1cccc(-c2cc3nccc(Oc4ccc(NC(=O)NC5CC5)cc4F)c3s2)n1
< 250 nM				250 to 500 nM	COCCNCc1cnc(-c2cc3nccc(Oc4ccc(NC(=O)NC5CC5)cc4F)c3s2)n1C
